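Each compound was tested at five concentrations against cells in 96-well plates for 48 hours. GI50 = concentration required for 50% inhibition of growth.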 Active and inactive are the calls of the source. Rule as the data show it: active = GI50 up to about 1.1 µM and inactive = higher. A value given as a limit tells only on which side of the number the result lay.

Consider eleven molecules from ChEMBL document CHEMBL1201862, “PubChem BioAssay data set” (2004).

Among the test systems are CAKI-1; SF-539; HT-29; HOP-62; HCC 2998; RXF 393; SR; MDA-N; MDA-MB-231; TK-10; MOLT-4; LOX IMVI; A498; SF-268; T47D; NCI-H522; SW-620; NCI-H23; Hs-578T; MCF7.
Holding throughout (experiment): DTP human tumour cell line panel, 48 h

Regarding `Cc1ccc(NNc2cc(=O)[nH]c(=O)[nH]2)cc1Cl`, the GI50 was 14.4 µM (inactive) in the assay with CAKI-1; 19.5 µM (inactive) in the assay with SF-539; 15 µM (inactive) in the assay on HT-29; 71.9 µM (inactive) in the assay with HOP-62; 15.7 µM (inactive) with HCC 2998; 16.5 µM (inactive) in the assay on RXF 393. Besides, the GI50 with SR was 12.1 µM (inactive); in the assay on MDA-N it was 15.2 µM (inactive); in the assay with MDA-MB-231 it was 15.8 µM (inactive); in the assay with TK-10 it was 19.1 µM (inactive); in the assay on MOLT-4, 4.98 µM (inactive); in the assay on LOX IMVI it was 5.71 µM (inactive). Also, the GI50 with A498 was > 100 µM (inactive); in the assay with SF-268, 43.2 µM (inactive); in the assay on T47D it was 9.95 µM (inactive); with NCI-H522 it was 16.5 µM (inactive); in the assay with SW-620, 14.4 µM (inactive); with NCI-H23, 16.8 µM (inactive). Moreover, the GI50 with Hs-578T was 83.2 µM (inactive).

As to `C=CCCON(C(=O)OC(C)(C)C)C(C)(C)C`, the GI50 in the assay on CAKI-1, in the assay on SF-539, in the assay with HT-29, with HOP-62, with RXF 393 and in the assay with MDA-N was > 100 µM (inactive) throughout. The GI50 with MDA-MB-231, in the assay on TK-10, in the assay on MOLT-4, with LOX IMVI, in the assay on A498 and in the assay on SF-268 was > 100 µM (inactive) each time. Moreover, the GI50 with T47D, with NCI-H522, with SW-620, in the assay with NCI-H23 and in the assay with Hs-578T was > 100 µM (inactive) throughout.

As to `CCOC(=O)c1c(N=C(S)Nc2ccc(Cl)cc2)sc2c1CCN(C)C2`, the GI50 in the assay on CAKI-1 was > 100 µM (inactive); with SF-539 it was 72.6 µM (inactive); with MCF7, > 100 µM (inactive); in the assay on HT-29 it was > 100 µM (inactive); in the assay on HOP-62, > 100 µM (inactive); in the assay with RXF 393, 32.7 µM (inactive). Besides, the GI50 in the assay with MDA-N is > 100 µM (inactive); with MDA-MB-231, > 100 µM (inactive); in the assay with TK-10 it was > 100 µM (inactive); in the assay with MOLT-4, 41.8 µM (inactive); with A498, > 100 µM (inactive); with SF-268, > 100 µM (inactive). For the same molecule, the GI50 with T47D, in the assay with NCI-H23 and in the assay with Hs-578T was > 100 µM (inactive) throughout.

As for `NC(=O)c1cc(N(CCO)CCO)c([N+](=O)[O-])cc1[N+](=O)[O-]`, the GI50 in the assay with CAKI-1, in the assay on SF-539, in the assay with MCF7, in the assay with HT-29, in the assay on HOP-62 and with HCC 2998 was > 100 µM (inactive) in each case. The GI50 with RXF 393, with SR, with MDA-N, with TK-10, with MOLT-4 and with LOX IMVI was > 100 µM (inactive) throughout. For the same molecule, the GI50 in the assay with A498, with SF-268, with T47D, in the assay with NCI-H522, with SW-620 and in the assay with NCI-H23 was > 100 µM (inactive) each time. In the assay on Hs-578T, the GI50 is > 100 µM (inactive).

Take `COC(=O)C12OC(C)(C(CC(=O)OC(C)(C)C)C1=O)C1C(=O)N(c3ccccc3)C(=O)C12` (configuration not stated): the GI50 in the assay on CAKI-1, in the assay with HT-29, in the assay with HOP-62, with HCC 2998, in the assay on RXF 393 and with SR was > 100 µM (inactive) each time. Moreover, the GI50 in the assay with MDA-N, with MDA-MB-231, with TK-10, with MOLT-4, in the assay on LOX IMVI and in the assay with A498 was > 100 µM (inactive) throughout. For the same molecule, the GI50 with SF-268, with T47D, in the assay on NCI-H522, in the assay on SW-620, in the assay with NCI-H23 and with Hs-578T was > 100 µM (inactive) throughout.

For `NC(Cc1cc(I)c(Oc2ccc(O)c(I)c2)c(I)c1)C(=O)O` (configuration not stated) [RATHYRONINE], the GI50 was > 100 µM (inactive) with CAKI-1; 41.6 µM (inactive) in the assay with MCF7; > 100 µM (inactive) in the assay with HT-29; > 100 µM (inactive) in the assay with HOP-62; > 100 µM (inactive) with RXF 393; > 100 µM (inactive) with MDA-N. Besides, the GI50 is 29.3 µM (inactive) in the assay on MDA-MB-231; 42 µM (inactive) with TK-10; 34.8 µM (inactive) in the assay on LOX IMVI; 35.7 µM (inactive) in the assay on A498; 42.6 µM (inactive) in the assay on SF-268; 81.7 µM (inactive) in the assay on T47D. Also, the GI50 in the assay on NCI-H522 was 36.1 µM (inactive); in the assay on SW-620 it was > 100 µM (inactive); in the assay on NCI-H23, > 100 µM (inactive); in the assay on Hs-578T, 37.9 µM (inactive).

`O=C1/C(=C/c2ccccc2)N=C(c2ccccc2)N1C1Nc2cc3c(cc2S1)NC(N1C(=O)/C(=C/c2ccccc2)N=C1c1ccccc1)S3` (configuration not stated): the GI50 is > 100 µM (inactive) with CAKI-1; > 100 µM (inactive) in the assay with SF-539; 22.3 µM (inactive) with MCF7; 5.01 µM (inactive) in the assay on HT-29; 16.9 µM (inactive) with HOP-62; 2.04 µM (inactive) with HCC 2998. The GI50 was 18.4 µM (inactive) in the assay with RXF 393; 5.28 µM (inactive) with SR; 8.61 µM (inactive) in the assay with MDA-N; 1.82 µM (inactive) in the assay with MDA-MB-231; 30.5 µM (inactive) in the assay on TK-10; 4.13 µM (inactive) with MOLT-4. Moreover, the GI50 is 3.74 µM (inactive) in the assay on LOX IMVI; 16.9 µM (inactive) in the assay on A498; 5.61 µM (inactive) in the assay with SF-268; 30.4 µM (inactive) in the assay with T47D; 0.0258 µM (active) in the assay on NCI-H522; 3.8 µM (inactive) in the assay with SW-620. Moreover, the GI50 in the assay on NCI-H23 was 4.9 µM (inactive).

Take `O=c1[nH]c2nccnc2c2c([N+](=O)[O-])cccc12`: the GI50 was > 100 µM (inactive) with SF-539; > 100 µM (inactive) with MCF7; > 100 µM (inactive) in the assay on HT-29; > 100 µM (inactive) with HOP-62; > 100 µM (inactive) with HCC 2998; 58.2 µM (inactive) with RXF 393. For the same molecule, the GI50 was > 100 µM (inactive) in the assay with SR; > 100 µM (inactive) with MDA-N; 81.8 µM (inactive) in the assay with TK-10; > 100 µM (inactive) with MOLT-4; 81.8 µM (inactive) in the assay on LOX IMVI; > 100 µM (inactive) in the assay with A498. Further, the GI50 is > 100 µM (inactive) in the assay with SF-268; 20.5 µM (inactive) in the assay with T47D; 49.9 µM (inactive) in the assay on NCI-H522; > 100 µM (inactive) in the assay with SW-620; > 100 µM (inactive) with NCI-H23; 55.5 µM (inactive) in the assay with Hs-578T.

As to `Nc1ccc(Oc2ccc(C34CC5C6CC7(c8ccc(Oc9ccc(N)cc9)cc8)CC5C(C3)C(C7)C6C4)cc2)cc1`, the GI50 in the assay with CAKI-1, in the assay with MCF7, with HT-29, in the assay on HOP-62, in the assay with RXF 393 and with MDA-N was > 100 µM (inactive) each time. The GI50 in the assay on MDA-MB-231, in the assay on TK-10, in the assay with MOLT-4, with LOX IMVI, in the assay with A498 and in the assay on SF-268 was > 100 µM (inactive) in each case. Also, the GI50 with T47D, in the assay on NCI-H522, with SW-620, in the assay on NCI-H23 and with Hs-578T was > 100 µM (inactive) in each case.

Consider `O=C1N[C@@H](COc2ccc(/C=N/c3ccc(CCc4ccc(/N=C/c5ccc(OC[C@@H]6COC(=O)N6)cc5)cc4)cc3)cc2)CO1`, for which the GI50 in the assay with CAKI-1, in the assay with HT-29, with HOP-62, in the assay on RXF 393, with SR and in the assay with MDA-N was > 100 µM (inactive) each time. The GI50 in the assay on MDA-MB-231, in the assay on TK-10, with MOLT-4, in the assay on LOX IMVI, in the assay on A498 and in the assay with SF-268 was > 100 µM (inactive) throughout. In addition, the GI50 with T47D, in the assay with NCI-H522, in the assay on SW-620 and in the assay on Hs-578T was > 100 µM (inactive) in each case.

Take `O=c1[nH]nc(-c2ccccc2)n1Nc1ccccc1`: the GI50 in the assay with CAKI-1, with SF-539, with HT-29, in the assay with HCC 2998, in the assay on RXF 393 and in the assay on SR was > 100 µM (inactive) throughout. The GI50 with MDA-N, in the assay on MDA-MB-231, in the assay on TK-10, in the assay on MOLT-4, with LOX IMVI and in the assay with A498 was > 100 µM (inactive) in each case. In addition, the GI50 in the assay on SF-268, in the assay with T47D, with NCI-H522, in the assay with SW-620, in the assay with NCI-H23 and with Hs-578T was > 100 µM (inactive) each time.
